The values that follow come from patent publication US20080166805A1, “Culturing human cells and tissues in an N-glycolylneuraminic acid-free environment” (The Regents of the University of California, priority 2005, published 2008).

The subject of one assay is chimpanzee lymphoblasts. Nature of the assay: Neu5Gc/Neu5Ac feeding experiment, chimpanzee EBV-transformed lymphoblasts. Type of assay: cell-based. The settings on record: chimpanzee lymphoblasts fed 3 mM for 3 days. As to the method: (§1) Cell Culture—Caco-2 cells were propagated in alpha-MEM containing GLUTAMAX™ (Invitrogen, San Diego, Calif.) and a mixture of ribonucleosides and deoxyribonucleosides (Gibco/Invitrogen, San Diego, Calif.) supplemented with 20% FCS. All the fibroblast cell lines and CHO-K1 cells were cultured in the same media supplemented respectively with 15% non-heat inactivated FCS or 10% heat inactivated FCS. Chimpanzee Fred and human […] EBV-transformed lymphoblasts were cultured in RPMI-1640 (Gibco/Invitrogen, San Diego, Calif.) supplemented with 10% heat inactivated FCS or 15% human serum. All of the cultures were maintained at 37° C., 5% CO2 atmosphere. In order to deplete any remaining Neu5Gc from FCS, the cells were split and cultured prior to Neu5Gc feeding experiments for at least 4 days in alpha-MEM supplemented with an adequate percentage of heat-inactivated premium human serum instead of FCS. The cells were then maintained under the same conditions during the whole feeding experiment. The human serum was heat inactivated at 56° C. for 30 min. before use.
Neu5Gc and ManNGc Feeding Experiment—Neu5Ac, Neu5Gc or ManNGc were dried, dissolved in the appropriate media supplemented with heat-inactivated human serum, sterilized using a Spin-X® (Corning Inc., Corning, N.Y.) and then added to the cells. The pH of the media containing Sia was adjusted to neutrality using sterilized 1M NaOH before starting the feeding experiment. Cells were cultured in the presence of up to 3 mM free Sia or ManNGc for 1 or 3 days at 37° C. […]
Fractionation of the Labeled Cells—Washed cell pellets were sonicated into 500 μL of 20 mM sodium phosphate buffer or 20 mM Tris-HCl, pH 7.5, using 4×15 second pulses of a sonicator cell disrupter, model Some Dismembrator (Fisher Scientific, Hampton, N.J.) at a probe setting of 3. […] The pellet contained <5% of the incorporated sialic acid as determined using a radioactive tracer (data not shown.) The supernatant was therefore considered as the “total homogenate” fraction. A portion (20%) of the “total homogenate” fraction was taken for protein quantification and Sia analysis by DMB derivatization and HPLC analysis (as discussed below.) The remainder was centrifuged at 100,000×g for 1 h. […] All the Sias in these fractions were released with mild acid hydrolysis if necessary and then analyzed by HPLC after DMB derivatization. Protein quantification was performed on the total homogenate, membrane and soluble protein fractions by using the BCA protein assay kit from Pierce (Rockford, Ill.) In some experiments, the resulting data obtained for the Sia bound to the membrane fraction and to the soluble proteins were pooled and presented here as a High Molecular Weight (HMW) fraction. […]

For assay [1], the system named is normal human skin fibroblasts (WT). Kind of assay: Neu5Gc/ManNGc feeding experiment, normal human skin fibroblasts. Type of assay: cell-based. The procedure:
as §1
(§2) Neu5Gc and ManNGc Feeding Experiment—Neu5Ac, Neu5Gc or ManNGc were dried, dissolved in the appropriate media supplemented with heat-inactivated human serum, sterilized using a Spin-X® (Corning Inc., Corning, N.Y.) and then added to the cells. The pH of the media containing Sia was adjusted to neutrality using sterilized 1M NaOH before starting the feeding experiment. Cells were cultured in the presence of up to 3 mM free Sia or ManNGc for 1 or 3 days at 37° C. At the end of the feeding, cells were washed with cold PBS, harvested either by scraping or with 2 mM EDTA for fibroblasts, and washed again with cold PBS prior to fractionation.
Fractionation of the Labeled Cells—Washed cell pellets were sonicated into 500 μL of 20 mM sodium phosphate buffer or 20 mM Tris-HCl, pH 7.5, using 4×15 second pulses of a sonicator cell disrupter, model Some Dismembrator (Fisher Scientific, Hampton, N.J.) at a probe setting of 3. The sonicate was centrifuged at 75×g for 15 min., and the pellet obtained consisted primarily of nuclei and unbroken cells. The pellet contained <5% of the incorporated sialic acid as determined using a radioactive tracer (data not shown.) The supernatant was therefore considered as the “total homogenate” fraction. A portion (20%) of the “total homogenate” fraction was taken for protein quantification and Sia analysis by DMB derivatization and HPLC analysis (as discussed below.) The remainder was centrifuged at 100,000×g for 1 h. The resulting pellet, called the “membrane” fraction, was then resuspended by sonication (15 sec.) in 200 μl of sodium acetate buffer, pH 5.5. The 100,000×g supernatant, called the “soluble” fraction was adjusted to 90% ethanol using absolute ice-cold ethanol, and placed overnight at −20° C. The flocculant precipitate, which represents the “soluble protein” fraction, was washed 3 times with 90% ice-cold ethanol and then resuspended in 200 μl of water. […] All the Sias in these fractions were released with mild acid hydrolysis if necessary and then analyzed by HPLC after DMB derivatization. Protein quantification was performed on the total homogenate, membrane and soluble protein fractions by using the BCA protein assay kit from Pierce (Rockford, Ill.) In some experiments, the resulting data obtained for the Sia bound to the membrane fraction and to the soluble proteins were pooled and presented here as a High Molecular Weight (HMW) fraction. […]

The next assay has as its system Caco-2 cells. Kind of assay: Endocytosis inhibition experiments (Neu5Gc uptake in Caco-2 cells). In kind it is cell-based, human. The note with it: 3 mM Neu5Gc, no inhibitor. As to the method:
The sonicate was centrifuged at 75×g for 15 min., and the pellet obtained consisted primarily of nuclei and unbroken cells. […] A portion (20%) of the “total homogenate” fraction was taken for protein quantification and Sia analysis by DMB derivatization and HPLC analysis (as discussed below.) The remainder was centrifuged at 100,000×g for 1 h. The resulting pellet, called the “membrane” fraction, was then resuspended by sonication (15 sec.) in 200 μl of sodium acetate buffer, pH 5.5. The 100,000×g supernatant, called the “soluble” fraction was adjusted to 90% ethanol using absolute ice-cold ethanol, and placed overnight at −20° C. The flocculant precipitate, which represents the “soluble protein” fraction, was washed 3 times with 90% ice-cold ethanol and then resuspended in 200 μl of water. The supernatant fluid representing the cytosolic low molecular weight (LMW) fraction was dried and brought up in 100 μL with water prior to Sia analysis. All the Sias in these fractions were released with mild acid hydrolysis if necessary and then analyzed by HPLC after DMB derivatization. Protein quantification was performed on the total homogenate, membrane and soluble protein fractions by using the BCA protein assay kit from Pierce (Rockford, Ill.) In some experiments, the resulting data obtained for the Sia bound to the membrane fraction and to the soluble proteins were pooled and presented here as a High Molecular Weight (HMW) fraction. Sialic Acid Release, DMB Derivatization and HPLC Analysis—The bound Sias from the total homogenate, membrane and soluble protein fractions were released using 2M acetic acid hydrolysis, 3 h. at 80° C. The released Sias, or free Sias, contained in the soluble LMW fraction were passed through a Microcon® YM-10 filter (Millipore, Bedford, Mass.) prior to DMB derivatization, which was done according to Hara et al., 1989. […] The eluant was monitored by fluorescence. Quantification of Sias—For all HPLC chromatograms, the quantification of Sias was done by comparison with known quantities of DMB derivatized Neu5Gc and Neu5Ac used as standards and then reported in terms of pmoles of Sia. For total homogenate, membrane and cytosolic protein fractions, this number was expressed per mg of protein. Due to minor sample-to-sample variations in amounts and recoveries, the data in the Figures is presented as percent of Neu5Gc over total Sias, rather than as absolute amounts. Endocytosis Inhibition Experiments—Caco-2 or normal fibroblast cells were split and cultured in alpha-MEM media supplemented respectively with 20% or 15% human serum for 4 days before starting the endocytosis drug inhibition experiments in order to deplete any Neu5Gc derived from FCS. Cells were then pre-treated for 2 h. with the specific inhibitors under the same culture conditions. Fresh media containing the same amount of inhibitor and 3 mM of Neu5Gc was then added to the cells, which were incubated for 16 h or 3 days and finally harvested and fractionated as described above.

For assay [2], the system named is human neuroblastoma cells. Kind of assay: Neu5Gc feeding experiment, human neuroblastoma cells. The settings on record: neuroblastoma cells fed 3 mM for 3 days. Type of assay: cell-based. As to the method: as §2
Fractionation of the Labeled Cells—Washed cell pellets were sonicated into 500 μL of 20 mM sodium phosphate buffer or 20 mM Tris-HCl, pH 7.5, using 4×15 second pulses of a sonicator cell disrupter, model Some Dismembrator (Fisher Scientific, Hampton, N.J.) at a probe setting of 3. […] The pellet contained <5% of the incorporated sialic acid as determined using a radioactive tracer (data not shown.) The supernatant was therefore considered as the “total homogenate” fraction. A portion (20%) of the “total homogenate” fraction was taken for protein quantification and Sia analysis by DMB derivatization and HPLC analysis (as discussed below.) The remainder was centrifuged at 100,000×g for 1 h. […]

Where [3] appears, read: normal fibroblasts fed 3 mM for 3 days.

The structures appear in SMILES notation.

With `O=C(CO)N[C@H]1[C@H]([C@H](O)[C@H](O)CO)OC(O)(C(=O)O)C[C@@H]1O` (stereo partly drawn) [Neu5Gc, N-glycolylneuraminic acid], the “Neu5Gc as percent of total Sia, TH fraction” value amounted to 70% in the assay with chimpanzee lymphoblasts (non-fed baseline 57%) and 28% in assay [1] (setting [3]). The “Neu5Gc as percent of total Sia, HMW fraction” value in the assay with chimpanzee lymphoblasts (non-fed baseline 66%) stood at 72%; in assay [1] (setting [3]), 39%. The “Neu5Gc as percent of total Sia, LMW fraction” value in the assay with chimpanzee lymphoblasts (non-fed baseline 70%) was 84%. In addition, the “Neu5Gc as percent of total Sia, cytosolic LMW fraction” value in assay [1] (setting [3]) was determined as 41%. The “percent of Neu5Gc incorporation into membrane-bound glycoconjugates” value in assay [1] (normal wild-type (WT) fibroblasts fed 3 mM for 3 days) was 37%. Also, the “Neu5Gc incorporation into membrane-bound glycoconjugates without inhibitor (percent of total Sia)” value with Caco-2 cells is recorded as 45%. Further, in assay [2], the Neu5Gc incorporation efficiency entry is on record as “efficiency comparable to the Caco-2 cells”.
